In US20150158891A1, “STABLE PHARMACEUTICAL COMPOSITION FOR OPTIMIZED DELIVERY OF AN HIV ATTACHMENT INHIBITOR” (Bristol-Myers Squibb Company, priority 2008, published 2015) one finds Prodrug peak area data, which are given here for one molecule.

The series deals with Porcine alkaline phosphatase. As to the kind of experiment: Conversion of prodrug to parent compound by alkaline phosphatase in pH 7.0 Tris-HCl buffer solution. Type of series: in vitro ADME. Here is the method:
Phosphate ester prodrug was dissolved in pH 7.0 Tris-HCl buffer to a concentration of 0.72 mg/mL. Porcine alkaline phosphatase (1 mg/mL) was added to an aliquot of the solution. 2.5 hours after enzyme addition a sample was analyzed. The results in the Table below confirm that alkaline phosphatase is active in pH 7.0 Tris-HCl buffer and rapidly hydrolyzes the phosphate ester prodrug to the parent compound.

Regarding `COc1cnc(-n2cnc(C)n2)c2c1c(C(=O)C(=O)N1CCN(C(=O)c3ccccc3)CC1)cn2COP(=O)(O)O` [Prodrug, 1-benzoyl-4-[2-[4-methoxy-7-(3-methyl-1H-1,2,4-triazol-1-yl)-1-[(phosphonooxy)methyl]-1H-pyrrolo[2,3-c]pyridin-3-yl]-1,2-dioxoethyl]-piperazine], the Prodrug peak area came out at 0.0% (2.5 hr sample of solution containing enzyme (1 mg/mL)) and 99.9% (initial sample of prodrug solution (no enzyme), 0.72 mg/mL, percent of total prodrug+parent peak area).
